Measured values reported in patent US9877681B2, ““Micro-patch” for assessment of the local microvasculature and microcirculatory vasoreactivity” (priority 2007, dated 2018).
Entries after “also recorded” stand apart in the source; their conditions may differ. Like-named read-outs stand apart in the source and are kept apart here.

Legend:
[1] = test system: forehead blood flow; test: Non-iontophoretic transdermal acetylcholine at the forehead, laser Doppler flowmetry (Table 2); type: in vivo, human; settings: Silverman, <0.25 ml of 1%, inc
From the text: (§1) Mixing was accomplished to achieve a final product that was smooth and free of abrasive particles. Based on trial and error testing, it was elected to pursue testing with acetylcholine chloride powder dissolved in water for placement on an adherent surface (e.g., clear tape). […] This dose is proportional to doses of MIOCHOL-E,™ (that is, a clinically available acetylcholine preparation that is used to produce papillary constriction (miosis) during cataract surgery) that had been tested in preliminary trials. However, the agent used for micro-patches can be superconcentrated compared to the solution used for intraocular injection—made possible because of the small delivery area.
The dry side of the acetylcholine “micro-patch” was adhered to the end of a laser Doppler flowmetry probe (a PF 5010 with Probe Model 407, Perimed, Sweden in accordance with a preferred embodiment) (see FIGS. 1 and 2). A sham drug micro-patch was made in the same way with 0.02-mL of HPLC-grade water instead of acetylcholine solution. […] As detailed below, this delivered as much as 10% of that used to constrict the pupil during cataract surgery Dose-response curve can be assessed with serial dilutions. […]

[2] = test system: local microvasculature (forehead); test: Laser Doppler scanner imaging of micro-patch sites on the forehead; type: in vivo, human; settings: several minutes after application, FIGS. 22-24
From the text: Another alternative is provided by the laser Doppler scanning imager. […] [Wardell K, Braverman I M, Silverman D G, Nilsson G E: Spatial heterogeneity in normal skin perfusion recorded with laser Doppler imaging and flowmetry. Microvascular Research 48(1):26-38, 1994 July]. […] This is accomplished by rapidly scanning an area by a shifting light that is sequentially directed to successive study sites by a mirror. […] This is because the laser Doppler scanner typically monitors a given site for fractions of a second. […] Compromises include rapidly scanning all sites at repeat intervals for a long enough period to overcome the effects of pulsations and oscillations. However, a relatively long interval is required to ensure this. Thus, the laser Doppler scanner mitigates spatial variability at the expense of temporal variability (e.g., beat-to-pulsations with each heart beat as well as oscillations in activity as a component of autonomic regulation of blood vessels).

[3] = test system: local microvasculature (forehead); test: Study B: acetylcholine and nitroglycerin micro-patches, laser Doppler flowmetry of forehead perfusion in patients with diabetes; type: in vivo, human; settings: 10 diabetic patients with retinopathy
Procedure: Methods: For each session, subjects lay on a bed in a semi-recumbent position in a temperature-controlled room (24+1° C.). A three-lead electrocardiogram and a noninvasive brachial artery blood pressure cuff were applied. The three laser Doppler flowmetry probes with customized acetylcholine, nitroglycerin, and placebo micro-patches (as described above) attached were adhered onto the three double-stick discs on the forehead so as to enable undisturbed monitoring and drug delivery. Laser Doppler flowmetry monitoring was performed continuously at each site until a vasodilatory plateau was maintained for ≧3 minutes or for a maximum of 20 minutes. Data were collected at a rate of 1000 Hz using Chart for Windows (ADlnstruments, Colorado Springs, Colo.).
The local microvascular effects of transdermal acetylcholine and nitroglycerin were first tested in 10 healthy volunteers (7 males, 3 females; mean age 36.1, range 19 to 56 years) without vascular disease or diabetes. […]
An investigator blinded to the status of the subject and to the nature of the study site assessed the laser Doppler tracing at each study site. […] The effects of the single dose of acetylcholine was compared to the single dose of nitroglycerin in the healthy volunteers, with the differences analyzed using Wilcoxon Signed Rank Test (WSRT). […]

[4] = test system: forearm blood flow; settings: Iontophoresis, inc, cited from earlier work
[5] = test system: local microvasculature (forehead); test: Study B: acetylcholine and nitroglycerin micro-patches, laser Doppler flowmetry of forehead perfusion in healthy volunteers; type: in vivo, human; settings: for increase in laser Doppler flowmetry readings, mean (95% CI): 10 healthy volunteers, forehead, plateau vs baseline; for time to marked rise in laser Doppler flowmetry voltage (flux) after drug application: each healthy volunteer; for blood flow at the micro-patch site, representative tracings: one healthy subject, FIG. 19
From the text: as §1
The dry side of the acetylcholine “micro-patch” was adhered to the end of a laser Doppler flowmetry probe (a PF 5010 with Probe Model 407, Perimed, Sweden in accordance with a preferred embodiment) (see FIGS. 1 and 2). A sham drug micro-patch was made in the same way with 0.02-mL of HPLC-grade water instead of acetylcholine solution. Before micro-patch application, a DOUBLE-STICK DISC™ (3M Health Care, Neuss, Germany) (that is, the double-sided adhesive ring 6 discussed above) with an overall diameter of 38.1-mm and a central hole (or opening) diameter of 8.7-mm is placed at the site to be tested. The double-sided adhesive ring 6 serves as an adherent base onto which a monitor such as a laser Doppler flowmetry probe 1 is placed as well as to define the area (59.4-mm^2) for drug application. In addition to providing for targeted adherence, when placed between the micro-patch 2 and the study surface (as shown in FIG. 1) this further limits the area of drug delivery by providing a barrier to drug delivery from the outer regions of the micro-patch 2. As detailed below, this delivered as much as 10% of that used to constrict the pupil during cataract surgery Dose-response curve can be assessed with serial dilutions. […] Laser Doppler flowmetry is an exemplary form of potential monitoring (used in each of the Table 2 studies).
The creation of a nitroglycerin micro-patch so as to enable concurrent monitoring of an endothelium-dependent transdermal preparation (acetylcholine, described above) and an endothelium-independent vasodilator (nitroglycerin) is simpler than the creation of the acetylcholine micro-patch. […] The present invention provides not only for the application of the disclosed method for monitoring the local circulation but the tailoring of the micro-patch to ensure effective delivery throughout the monitoring site while avoiding delivery of excess drug that might predispose to remote and/or systemic effects. For a single laser Doppler flowmetry probe, the nitroglycerin micro-patch may be obtained by using a standard hole-punch to cut a 6-mm diameter (28.3-mm^2 area) section of a full size 0.6 mg/hr MINITRAN™ nitroglycerin patch (3M, Minnesota). Alternatively, for applications where one wishes to move the laser Doppler flowmetry probe so as to encompass a larger area (as with the inventive assembly in FIG. 16), a small rectangle may be appropriate. Such patches are designed for homogeneous delivery of drug at a rate of 0.03-mg/hour per 100-mm^2 area of patch, such that the section used in the inventive micro-patch delivered at a rate of approximately 0.008-mg/hr. Although not currently available, lesser or higher concentrations of nitroglycerin may be used for micro-patches, pending dose response studies to confirm local efficacy and lack of systemic effects. The nitroglycerin micro-patch then is placed onto a double-sided adhesive ring for adherence to a monitoring probe (see FIGS. 1 and 2) or it may be placed on the tissue under an elevated support assembly 131 or scanner (described below).
Methods: For each session, subjects lay on a bed in a semi-recumbent position in a temperature-controlled room (24+1° C.). A three-lead electrocardiogram and a noninvasive brachial artery blood pressure cuff were applied. […]

[6] = test system: local microvasculature (finger); test: Micro-patch applied to the finger, laser Doppler flowmetry; type: in vivo, human
From the text: The difference likewise is seen in results generated by a laser Doppler scanner (discussed below).

[7] = test system: local microvasculature (forehead)
Procedure: Prior to the customization of nitroglycerin according to the present invention, nicotine was customized in accordance with the purposes of present invention. This entailed customization of a commercially available clear NICODERM patch, nicotine delivery patch, (with 0.83 mg of nicotine/cm^2). Again, lesser or higher concentrations may be used for a micro-patch; these are not currently available, since currently available nicotine patches delivery a fixed dose/cm^2 patch such that a higher systemic dose is obtained by using a larger patch.
The preliminary investigations with nicotine micro-patches (0.83 mg/cm^2) entailed customizing a section of the micro-patch so that it adhered to an area of skin that was sufficient to deliver drug to the area under a laser Doppler flowmetry probe and that enabled attachment of the laser Doppler flowmetry probe to an upper surface of the micro-patch.

[8] = test system: local microvasculature; test: Fast Fourier transformation (FFT) of signals at micro-patch sites; type: in vivo, human
From the text: This leads to present disclosure of a means to overcome the potential confusion: I herein introduce the application of spectral domain analysis [fast Fourier transformation (FFT), alluded to above, and variations thereof such as joint time frequency)] to characterize PTT values. This enables comparative assessment of: FFT of PTTPPG (primarily influenced by arrival of the stroke volume at underlying artery), FFT of PTTlaserDoppler (arrival of stroke volume at microvasculature), and FFT of PTTPPG-LaserDoppler.
Once combined monitoring becomes available at a given site, and then concurrent FFT analysis of PTT of artery, acv and vein will enable one to delineate the sites of microvascular and neuro-microvascular activity. In addition to micro-patch induced changes in readings between sites of measurement (e.g. PTT), we can also measure changes at sites of measurement (e.g., mean, heights). Again, confounders such as different units and differing criteria for onset may be avoided with FFT.

[9] = test system: local microvasculature (finger); test: Laser Doppler scanner imaging of micro-patch sites on the fingers; type: in vivo, human; settings: FIG. 25
From the text: Nitroglycerin induces vasodilation independent of the parasympathetic pathways. […] Anesthesiology 2004;101:A246] and phenylephrine [Silverman D G, Stout R G: Distinction between atropine-sensitive control of microvascular and cardiac oscillatory activity. Microvasc Res 63:196-208, 2002].

[10] = test system: local microvasculature (forehead); test: Study D: impact of fatty meal on responses to nitroglycerin and acetylcholine micro-patches; type: in vivo, human; settings: 10 minutes after patch application
Procedure: Two hours later, subjects underwent application of acetylcholine and nitroglycerin micro-patches. As described above, the former was prepared by mixing 100 mg of solid acetylcholine with […] of sterile water. From this solution (concentration of 14.3 mg/ml) we used an aliquot of just under 0.14 ml (less than 10% of the standard 20 mg dose injected into the eye during cataract surgery). The latter consisted of a 1.4 cm×1.4 cm translucent square (cut from a full-sized nitroglycerin patch) to delivery 0.008 mg/hr of nitroglycerin to the study site. Before each patch application, seven sites of the forehead were monitored with a commercially available integrating laser Doppler flowmetry probe that averages the output from several closely packed light-transmitting channels (to partially overcome spatial heterogeneity). At 10 minutes after patch application, readings were repeated. Changes were analyzed using paired t-test.

[11] = test system: local microvasculature (forehead); settings: scopolamine applied with/before nicotine, FIG. 18

For `CC(=O)OCC[N+](C)(C)C.[Cl-]` [acetylcholine, acetylcholine chloride], the “Change in Blood Flow” value [1] was 50-250%, the “relative blood flow at the micro-patch site (laser Doppler scanner)” value (“relative blood flow” below) [2] was “increase in relative blood flow; also recorded: increased blood flow” and the “mean percent increase in blood flow (95% CI)” value [3] was 156% (91%-221%). The “Change in Blood Flow” value ([4]; Morris, approx 0.25 ml of 1%) was 50-100%, the “Change in Blood Flow” value ([4]; Noon, approx 0.25 ml of 2%) was 1000% and the “increase in laser Doppler flowmetry readings, mean (95% CI)” value [5] was 406% (245%-566%). For the same molecule, the “time to marked rise in laser Doppler flowmetry voltage (flux) after drug application” value [5] was “two”, the “change in systemic blood pressure and heart rate” value ([5]; human, in vivo) was “lack of significant change” and the “blood flow at the micro-patch site, representative tracings” value [5] was “Prompt increases in blood flow”.
For `CN1CCCC1c1cccnc1` (stereo not drawn) [nicotine], the “relative blood flow” value [2] was “increase in relative blood flow; also recorded: caused vasodilation; also recorded: greatest flow”, the “change in flow when applied to the finger” value [6] was “no significant change” and the “increase in flow at the active site” value ([7]; button-sized translucent micro-patch, forehead of seven healthy subjects) was 388.4%. The “response at a remote site or in systemic indices (heart rate, blood pressure, flow at other sites)” value ([7]; drug delivery limited to the micro-patch) was “no response”, the “flow at the nicotine site relative to baseline (laser Doppler flowmetry)” value ([7]; forehead, between 5 and 15 minutes after application, FIG. 17) was “approximately 300 % of baseline” and the “increase in local blood flow” value ([7]; transdermal application at the forehead, within 30 min) was 2-5 fold. For the same molecule, the “local microvasculature's response to the micro-patch” value ([7]; transdermal micro-patch) was “vasodilation”, the “change in the 0.03-0.12 Hz frequency range by FFT” value ([8]; 0.03-0.12 Hz) was “marked increase” and the “oscillatory activity at micro-patch site by FFT” value ([8]; in vivo) was “marked oscillatory activity”. The “flow at the micro-patch site (laser Doppler scanner)” value [9] was “lack of increased flow”.
With `O=[N+]([O-])OCC(CO[N+](=O)[O-])O[N+](=O)[O-]` [nitroglycerin] the “relative blood flow” value [2] was “increase in relative blood flow; also recorded: caused vasodilation; also recorded: Increased flow”, the “mean percent increase in blood flow (95% CI)” value [3] was 116% (79%-153%) and the “change in flow when applied to the finger” value [6] was “significant change”. The “nitroglycerin/acetylcholine ratio of induced increase” value ([10]; two hours after fat-laden meal) was 1.31, the “nitroglycerin/acetylcholine ratio of induced increase” value ([10]; two hours after nonfat meal) was 0.94 and the “increase in laser Doppler flowmetry readings, mean (95% CI)” value [5] was 365% (179%-550%). The “time to marked rise in laser Doppler flowmetry voltage (flux) after drug application” value [5] was “two”, the “change in systemic blood pressure and heart rate” value ([5]; healthy volunteers) was “lack of significant change” and the “blood flow at the micro-patch site, representative tracings” value [5] was “Prompt increases in blood flow”. For the same molecule, the “flow at the micro-patch site (laser Doppler scanner)” value [9] was “induced vasodilation; also recorded: flow increased”.
In the case of `CN1[C@@H]2C[C@@H](OC(=O)[C@H](CO)c3ccccc3)C[C@H]1[C@@H]1O[C@@H]12` [scopolamine], the “effect of scopolamine on the nicotine-induced increase in perfusion” value [11] is reported as “blunted; also recorded: inhibition”.
